For 1 compound, oocyte diameter results are on record in patent US8536124B2, “Artificial decapeptide for inducing vitellogenesis in fish” (National Pingtung University of Science & Technology, priority 2010, dated 2013).

In this assay the test system is Mugil cephalus. Put plainly: Ovum maturation (vitellogenesis) of Mugil cephalus after implantation of sustained-release capsules. The assay is classed as in vivo. Particulars: M. cephalus, implanted in May, diameter in October; preparation 400 μg, estradiol 1000 μg; FIG. 3. An excerpt: Additionally, a method for inducing vitellogenesis in fish can also be developed, by implanting the preparation of the present invention into body cavity or body wall of bony fish, for example in lateral muscle or abdomen cavity, in order to inducing the sexual maturation and vitellogenesis in the bony fish. With reference to FIG. 1, the preparation of the present invention is preferably implanted into lateral muscle adjacent to dorsal fin 21 of a bony fish 2 by an injector 1 in the present embodiment. Accordingly, the decapeptide in the preparation can be sustaining released into the bony fish for long-term inducing the hypophysis to synthesize and secrete gonadotropin (GtH) so that the vitellogenesis and breeding of the bony fish can be achieved.
Referring to FIG. 3, the responses of Mugil cephalus on decapeptide-induction are shown. In the present embodiment, several farming M. cephalus, are prepared and randomly assigned into five groups including (b1), (b2) ovaprin group, (b3) estradiol group, (b4) MixT group and (b5) control group. […] Moreover, ova of each group of M. cephalus are collected and analyzed monthly after implantation for monitoring the vitellogenesis in each group of M. cephalus. The ovum maturation of each group of M. cephalus is also determined in accordance with the size and accumulation of the ovum.

Take `C[C@]12CC[C@@H]3c4ccc(O)cc4CC[C@H]3[C@@H]1CC[C@@H]2O` [estradiol]: the oocyte diameter entry was “about 380 μm”.
